Measurements from US6964949B2, “Pharmaceutical compositions for promoting the growth of gram-positive bacilli and increasing the acidity in the vagina and the use thereof” (Shanghai Jiao Da Onlly Co., Ltd., priority 2000, dated 2005).

Columns and labels:
Format in all cases: cell-based
Gram-negative bacilli [1] = test: Experiment Example 2: comparison of saccharides, specimen culture, Gram smear; details: 10.0% saccharide, 1.0% yeast extract, 1.6% xanthan gum (dextrin 0.5%, starch none), pH 6.2, candle jar, 37° C.
Gram-negative cocci [2] = test: as above; details: 10.0% saccharide, 1.0% yeast extract, 1.6% xanthan gum (dextrin 0.5%, starch none), pH 6.2, candle jar, 37° C.
Gram-positive bacilli [3] = test: as above; details: 10.0% saccharide, 1.0% yeast extract, 1.6% xanthan gum (dextrin 0.5%, starch none), pH 6.2, candle jar, 37° C.
Gram-negative bacilli [4] = test: Experimental Example 1: bacterial vaginosis specimen suspension cultured in the composition, Gram smear; details: 10.0% sucrose, 1.0% yeast extract, 1.6% xanthan gum, pH 5.0, anaerobic, 37° C.
Protocol: (§1) • (1) The preparation of the composition: Sucrose was used to prepare the following composition according to the method mentioned above: sucrose 10.0% (W/V), yeast extract 1.0% (W/V), Xanthan gum 1.6% (W/V), pH 5.0; then filled the composition into the tubes after sterilization, with each tube containing 5 ml, and pre-reduced for use. • (2) Specimen suspension: Vaginal secretion was taken from one of the patients suffering from typical bacterial vaginosis with a cotton swab, then the swab was washed in 2 ml sterilized Trypcase-soy Broth immediately, and thus the specimen suspension was ready. […] The tubes were placed in an incubator for cultivation, at 37° C., anaerobically. Then, culture samples were taken from the tubes at 10 hours and 24 hours later respectively. The Gram smears of the samples were observed and the pH values of the samples were measured.

Gram-negative cocci [5] = test: as above; details: 10.0% sucrose, 1.0% yeast extract, 1.6% xanthan gum, pH 5.0, anaerobic, 37° C.
Protocol: as §1

Gram-positive bacilli [6] = test: as above; details: 10.0% sucrose, 1.0% yeast extract, 1.6% xanthan gum, pH 5.0, anaerobic, 37° C.
Protocol: as §1

Gram-positive cocci = test: as above; details: 10.0% sucrose, 1.0% yeast extract, 1.6% xanthan gum, pH 5.0, anaerobic, 37° C.
Protocol: as §1

[7] = tested on: vaginal secretion specimen of a patient suffering from typical bacterial vaginosis; test: Experimental Example 1: pH of culture samples (production of acids); details: 10.0% sucrose, 1.0% yeast extract, 1.6% xanthan gum, pH 5.0, anaerobic, 37° C.
Protocol: as §1

For `OC[C@H]1O[C@H](O[C@H]2[C@H](O)[C@@H](O)[C@H](O)O[C@@H]2CO)[C@H](O)[C@@H](O)[C@@H]1O` [Maltose, maltose], the “Bacteria G − b (Gram-negative bacilli), 24 hours-culture” value (“Bacteria G − b … 24 hours-culture” for short) (Gram-negative bacilli [1]) was “G − b, +++ (About 100 bacteria or more per field vision under oil-immersion lens, even uncountable)”, the “Bacteria G − b (Gram-negative bacilli), 48 hours-culture” value (Gram-negative bacilli [1]) was “G − b, ++ (About 10-99 bacteria per field of vision under oil-immersion lens)” and the “Bacteria G − c (Gram-negative cocci), 24 hours-culture” value (“Bacteria G − c … 24 hours-culture” below) (Gram-negative cocci [2]) was “G − c, − (No or less than one bacterium per field of version under oil-immersion lens)”. The “Bacteria G − c (Gram-negative cocci), 48 hours-culture” value (Gram-negative cocci [2]) was “G − c, − (No or less than one bacterium per field of version under oil-immersion lens)”, the “Bacteria G + b (Gram-positive bacilli), 24 hours-culture” value (Gram-positive bacilli [3]; 24 hours) was “G + b, ++ (About 10-99 bacteria per field of vision under oil-immersion lens)” and the “Bacteria G + b (Gram-positive bacilli), 48 hours-culture” value (Gram-positive bacilli [3]) was “G + b, +++ (About 100 bacteria or more per field vision under oil-immersion lens, even uncountable)”.
In the case of `OC[C@H]1O[C@@](CO)(O[C@H]2O[C@H](CO)[C@@H](O)[C@H](O)[C@H]2O)[C@@H](O)[C@@H]1O` [Sucrose, sucrose], the “Bacteria G − b (Gram-negative bacilli), 10 hours-culture” value (Gram-negative bacilli [4]; 10 hours) is reported as “G − b, ++ (About 10-99 bacteria per field of vision under oil-immersion lens)”, the “Bacteria G − b … 24 hours-culture” value (Gram-negative bacilli [4]; 24 hours) is reported as “G − b, ++ (About 10-99 bacteria per field of vision under oil-immersion lens)” and the “Bacteria G − c … 24 hours-culture” value (Gram-negative cocci [5]) is reported as “G − c, + (1-9 bacteria per field of vision under oil-immersion lens)”. For the same compound, the “Bacteria G + b (Gram-positive bacilli), 10 hours-culture” value (Gram-positive bacilli [6]; 10 hours) was “G + b, +++ (About 100 bacteria or more per field vision under oil-immersion lens, even uncountable)”, the “Bacteria G + b (Gram-positive bacilli), 24 hours-culture” value (Gram-positive bacilli [6]; 24 hours) was “G + b, ++++” and the “Bacteria G + c (Gram-positive cocci), 24 hours-culture” value (Gram-positive cocci) was “G + C, ++ (About 10-99 bacteria per field of vision under oil-immersion lens)”. For the same compound, the “pH, 10 hours-culture” value ([7]; 10 hours) was 5.0, the “pH, 24 hours-culture” value ([7]; 24 hours) was 4.0 and the “Bacteria G − b … 24 hours-culture” value (Gram-negative bacilli [1]) was “G − b, + (1-9 bacteria per field of vision under oil-immersion lens)”. For the same compound, the “Bacteria G − b (Gram-negative bacilli), 48 hours-culture” value (Gram-negative bacilli [1]) was “G − b, ++ (About 10-99 bacteria per field of vision under oil-immersion lens)”, the “Bacteria G − c … 24 hours-culture” value (Gram-negative cocci [2]) was “G − c, − (No or less than one bacterium per field of version under oil-immersion lens)” and the “Bacteria G − c (Gram-negative cocci), 48 hours-culture” value (Gram-negative cocci [2]) was “G − c, − (No or less than one bacterium per field of version under oil-immersion lens)”. For the same compound, the “Bacteria G + b (Gram-positive bacilli), 48 hours-culture” value (Gram-positive bacilli [3]) was “G + b, +++ (About 100 bacteria or more per field vision under oil-immersion lens, even uncountable)”.
